Publication PMC11590367, “Characterization of novel small molecule inhibitors of estrogen receptor-activation function 2 (ER-AF2)” (Breast Cancer Research : BCR, 2024)
Entries after “also recorded” stand apart in the source; their conditions may differ.

Legend:
MCF7 spheroids = assay: Viability assay in 3D spheroids, MCF7; format: cell-based; settings: Homo sapiens, 1:2 dilution from 50 µM, 1 nM E2, read-out: IC50 on growth (area) of MCF7 spheroids
Experimental: MCF7 and T47D cells were seeded into a Corning Costar ultra-low attachment, round-bottom, 96-well plate (Millipore Sigma, CLS7007-24EA) at a density of 2,500 cells/well in starvation media. After 4 days of starvation, the cells were treated with a 1:2 serial dilution of inhibitor from 50 µM to 0.2 µM in the presence of 1 nM estradiol. Images were taken every 6 h using the IncuCyte S3 system and spheroid sizes were determined with the IncuCyte analysis software.

[1] = molecular target: ER-D538G - SRC3 interaction (Homo sapiens, UniProt P03372, D538G); assay: Proximity ligation assay, ER-D538G mutant; format: cell-based; settings: PLA, 10 µM
Experimental: (§1) MCF7 or TamR3 cells were starved for 72 h and then seeded onto PEI coated coverslips in a 6-well plate at 1 × 10^5 cells/well. For the E2 experiments, the cells were treated the following day with 10 µM of ER-AF2 inhibitor for 24 h, with E2 added 1 h before fixation. […] 24 h post-treatment, cells were fixed in methanol:acetone (3:1). Coverslips were then permeabilized with 0.05% Triton X-100 for 5 minutes at room temperature. The Duolink In Situ Detection Reagents Red kit from Millipore Sigma (DUO92008) was used for blocking and PLA according to the manufacturer’s protocol. Primary antibodies, Estrogen Receptor alpha antibody (F-10) (sc-8002) and Rabbit anti-SRC3 antibody (A300-348 A), were diluted 1:50 in antibody diluent.

[2] = molecular target: T1, ER-SRC3 interaction in MCF7 cells (Homo sapiens, UniProt P03372); assay: Proximity ligation assay (PLA), MCF7; format: cell-based; settings: 10 µM, 48 h, E2 stimulation
T1 construct: endogenous in cells; host or cells: MCF7 or TamR3 cells
Experimental: as §1, with “cells/well.” for “cells/well. For the E2 experiments, the cells were treated the following day with 10 µM of ER-AF2 inhibitor for 24 h, with E2 added 1 h before fixation.”, “[…] […]” for “24 h post-treatment, cells were fixed in methanol:acetone (3:1).”

[3] = molecular target: T2, PR (ARR3tk-luc) in PC3 cells (Homo sapiens, UniProt P06401); assay: Nuclear receptor luciferase transcriptional assay, PR; format: cell-based; settings: 1 or 5 µM, 1 nM Levonorgestrel
T2 construct: expressed in transfected cells; host or cells: PC3 cells
Experimental: PC3 cells (androgen receptor (AR)-, glucocorticoid receptor (GR)[…], progesterone receptor (PR)-, ER-) were starved for 72 h then seeded into a 96-well plate at a density of 5,000 cells/well. 24 h later, cells were transfected with either ER, AR, GR, or PR and a luciferase plasmid (ERE-luc for ER and ARR3tk-luc for AR, GR, and PR). 24 h post-transfection, cells were simultaneously stimulated with 1 nM E2 for ER, 0.1 nM R1881 for AR, 1 nM Dexamethasone for GR, or 1 nM Levonorgestrel for PR, and treated with 1 or 5 µM of VPC-260724 24 h post-treatment, cells were lysed with 50 µl of passive lysis buffer (Promega #E1910). 20 µl of lysate was transferred to a white flat-bottom 96-well plate (Corning Life Sciences Cat#3912). Luminescence readings were obtained using the TECAN M200 Pro plate reader following the addition of 50 µl of luciferase reagent (Promega Luciferase Assay System E1500).

MDA-MB-231 cells = assay: PrestoBlue viability assay, MDA-MB-231; format: cell-based; settings: dose response 50 to 0.01 µM, 1 nM E2
Experimental: T47D, MCF7, TamR3, and MDA-MB-231 cells were starved for 72 h and then seeded into black clear-bottom 96-well plates (Corning Life Sciences Cat#3904) at 20,000 cells/well (T47D, MCF7, TamR3) or 5,000 cells/well (MDA-MB-231). […] 20 µl of PrestoBlue Cell Viability Reagent (Thermo Fisher A13262) was added to each well and incubated at 37 °C for 1 h. Fluorescence intensity was measured using the TECAN F500 plate reader with emission and excitation wavelengths of […], respectively.

[4] = molecular target: T3, recombinant ER-LBD (residues 298–554) (Homo sapiens, UniProt P03372); assay: Microscale thermophoresis (MST) direct binding; settings: averaged from three independent assays, 20 µM E2 in buffer, read-out: Kd (binding affinity to ER-LBD)
T3 construct: The ER-LBD (residues 298–554) was cloned into pET28a bacterial expression plasmid; His-tag (N); made in house; host or cells: E. coli BL21-DE3 (with pRARE)
Experimental: The ER-LBD (residues 298–554) was cloned into pET28a bacterial expression plasmid with an N-terminal His-tag. pET28a-His-ER and pRARE were transformed into E. coli (BL21-DE3). Bacteria were grown at 37 [drawing 1] C overnight, and then diluted 1:20 the following day in LB media and grown at 37 [drawing 2] C until the OD600 reached 0.5. Protein expression was induced with 1 mM IPTG, and 50 µM E2 was added to the media. Cells were then grown for 5 h at 25 °C. Bacterial pellets were collected by centrifugation at 13,000 rpm for 7 min. Pellets were resuspended in lysis buffer (25 mM Tris, pH 8.4, 150 mM NaCl, 20 µM E2, 1 mM DTT, 0.1 mM PMSF, cOmplete protease inhibitor (Roche)) then sonicated and centrifuged to obtain the soluble extracts. ER-LBD was purified using affinity chromatography with Ni-NTA agarose resin. The presence of the ER-LBD in eluted fractions was confirmed by SDS-PAGE and validated by mass spectrometry. The eluted protein was further purified by size exclusion chromatography (s75), and fractions containing the ER-LBD protein were pooled and concentrated using Amicon Ultra centrifugal filters (3 K MWCO).
MST was used to validate the direct binding and measure the binding affinities between the lead compounds and the recombinant ER-LBD. […]

ER-D538G - SRC3 interaction, sequence (P03372 whole entry D538G): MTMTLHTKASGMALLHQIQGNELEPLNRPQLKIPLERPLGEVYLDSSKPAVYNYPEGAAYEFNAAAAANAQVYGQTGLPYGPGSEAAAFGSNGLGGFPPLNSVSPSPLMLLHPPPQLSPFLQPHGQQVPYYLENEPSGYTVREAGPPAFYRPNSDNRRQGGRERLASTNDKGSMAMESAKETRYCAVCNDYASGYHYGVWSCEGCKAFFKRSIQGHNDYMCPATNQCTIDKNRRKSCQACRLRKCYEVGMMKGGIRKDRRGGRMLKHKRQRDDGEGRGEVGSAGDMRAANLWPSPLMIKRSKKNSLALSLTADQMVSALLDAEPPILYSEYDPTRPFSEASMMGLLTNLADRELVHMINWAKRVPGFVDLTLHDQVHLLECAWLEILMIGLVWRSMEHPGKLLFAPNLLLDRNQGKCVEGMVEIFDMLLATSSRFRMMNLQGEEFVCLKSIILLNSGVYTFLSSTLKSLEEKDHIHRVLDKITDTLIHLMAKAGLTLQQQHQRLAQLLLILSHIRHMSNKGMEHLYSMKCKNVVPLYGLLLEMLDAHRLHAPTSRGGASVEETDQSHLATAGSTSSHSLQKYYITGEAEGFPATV
T3 sequence (P03372 298-554): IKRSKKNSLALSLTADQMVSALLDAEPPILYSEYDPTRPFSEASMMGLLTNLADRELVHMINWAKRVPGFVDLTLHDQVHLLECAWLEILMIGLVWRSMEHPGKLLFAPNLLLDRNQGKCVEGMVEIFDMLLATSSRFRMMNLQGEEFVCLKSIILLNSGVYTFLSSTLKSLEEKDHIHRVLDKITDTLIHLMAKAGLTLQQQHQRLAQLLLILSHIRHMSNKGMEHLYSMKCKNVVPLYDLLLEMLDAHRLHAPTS
T2 sequence (P06401 whole entry): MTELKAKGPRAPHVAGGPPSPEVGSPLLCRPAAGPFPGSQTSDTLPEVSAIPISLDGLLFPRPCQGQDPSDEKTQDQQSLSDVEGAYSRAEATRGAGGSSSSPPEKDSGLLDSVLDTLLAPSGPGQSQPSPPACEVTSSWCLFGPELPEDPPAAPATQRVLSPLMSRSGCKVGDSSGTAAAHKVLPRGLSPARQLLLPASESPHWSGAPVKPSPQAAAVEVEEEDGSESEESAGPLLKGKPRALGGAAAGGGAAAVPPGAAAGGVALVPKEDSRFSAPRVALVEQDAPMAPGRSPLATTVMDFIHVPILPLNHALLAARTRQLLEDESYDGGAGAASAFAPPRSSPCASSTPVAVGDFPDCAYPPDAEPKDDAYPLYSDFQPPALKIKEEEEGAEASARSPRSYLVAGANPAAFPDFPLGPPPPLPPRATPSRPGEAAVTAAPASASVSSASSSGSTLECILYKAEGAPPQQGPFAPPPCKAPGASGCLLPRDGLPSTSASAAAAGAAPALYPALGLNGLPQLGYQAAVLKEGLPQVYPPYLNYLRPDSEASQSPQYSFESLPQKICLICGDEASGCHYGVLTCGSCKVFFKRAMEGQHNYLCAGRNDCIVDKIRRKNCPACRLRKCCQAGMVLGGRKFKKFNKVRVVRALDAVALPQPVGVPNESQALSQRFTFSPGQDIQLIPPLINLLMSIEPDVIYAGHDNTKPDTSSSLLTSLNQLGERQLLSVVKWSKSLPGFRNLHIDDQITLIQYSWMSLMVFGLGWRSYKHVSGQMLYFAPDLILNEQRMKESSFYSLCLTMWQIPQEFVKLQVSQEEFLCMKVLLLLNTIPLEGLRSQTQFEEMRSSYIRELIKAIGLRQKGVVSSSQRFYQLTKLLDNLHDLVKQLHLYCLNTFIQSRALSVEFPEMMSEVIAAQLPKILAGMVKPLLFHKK
T1 sequence (P03372 whole entry): as the sequence (P03372 whole entry D538G) above, with G538D counted along it

Cc1cccn2c(CNCc3cccc(N(C)C)n3)cnc12 [VPC-260724]
IC50 (MCF7 spheroids): 15.6 ± 1.4 µM | Interaction between SRC3 and ER-D538G [1]: inhibited the interaction | ER-SRC3 interactions (PLA signals per nuclei), MCF7 [2]: significantly reduced ER-SRC3 interactions | Transcriptional activity of PR [3]: did not significantly impact | Effect on viability of ER-negative MDA-MB-231 cells (MDA-MB-231 cells): minimal impact; also recorded: did not affect the viability | Kd [4]: 85.2 ± 32.7 µM
